The values that follow come from patent US10251958B2 (NEWSOUTH INNOVATIONS PTY LIMITED, priority 2013, dated 2019).

Data set [1] in a line: DLS hydrodynamic diameter of BSA conjugated copolymer (Example 2). Format: physicochemical. The conditions noted are these: for PDi: 0.1M PBS pH 7, DLS. As to the method:
^1H-NMR spectra were acquired to characterised compounds using CDCl3 or d-DMSO with a 300 MHz spectrometer. Thermogravimetric analysis (TGA) was carried out using TG5000 to quantify the amount of platinum conjugated to the copolymers. The sample (≤5 mg) was placed on a thermo-balance and heated from room temperature to 600° C. at 20° C./min, and held for an isothermal period of 60 minutes under nitrogen atmosphere. Diameter size of copolymers in 0.1M PBS buffer pH 7.0 was measured using a Malvern dynamic light scattering instrument (DLS) in a disposable plastic cuvette (1 cm path length). Fluorescence measurements were performed on Agilent Cary Eclipse Fluorescence Spectrometer using a 1 cm quartz cuvette. Fluorescence spectra were recorded between 400-800 nm at λex=495 nm, λem=520 nm with entrance and exit slit width of […]. SDS-PAGE was performed using standard techniques using a premixed electrophoresis buffer which contains 25 mM Tris, 192 mM glycine and 0.1% SDS (Tris/Glycine/SDS buffer) to determine the conjugation efficiency between the BSA-FITC and the copolymer. Samples were prepared for electrophoresis without the use of a reducing agent. The samples were mixed with bromophenol blue (0.01% w/v) solution as the marker. The samples were resolved through a 10% polyacrylamide gel which was performed using a BioRad Mini-Protean II electrophoresis setup at a constant voltage (150 V). The samples were stained using Colloidal Blue Coomassie G-250 (Bio-Rad), and left overnight. Gel images were recorded using a Bio-Rad GS-800 calibrated densitometer. Native BSA was used as a control.
The size and shape of the BSA conjugated copolymer in PBS solution was investigated using DLS and TEM.

In a further data set the test system is cancer cells. Particulars: most effective free Curcumin study results; read-out: free Curcumin concentration to bring about 50% cell death; cited from earlier work.
Data set [2] relates to prostate cancer cell lines. Kind of data set: Cytotoxicity against three prostate cancer cell lines (Example 4). Format: cell-based. Particulars: chosen concentration range. The protocol: The product was tested for particle size and cytotoxicity against prostate cancer.
Data set [3] can be described thus: Hydrodynamic diameter and zeta potential of materials and complexes (Example 3). Format: physicochemical. Particulars: pH 7; ISIS 5132 200 ug/ml, BSA 1 mg/ml, PDMAEMA 0.21 mg/ml. The protocol:
The resulting conjugates were dialysed in 0.05 M PBS (pH5) for 12 h by changing solvent every 2 h. […] All the conditions were kept consistent to the corresponding oligonucleotide samples. In addition, the oligonucleotide transfection efficiency of the PEGMEMA-PDMAEAM cationic block copolymer was investigated. The same protocol was adopted to make the polyion complex micelles from this polymer solution.
The condensation of the oligonucleotide was therefore carried out when the conjugate solution was at pH5 and the oligonucleotide was dissolved in MilliQ water. The albumin-polymer conjugates with a pH of 5 was then slowly added to the solutions of ISIS 5132 with the concentration of 200 μg/ml (ζ=−29.87 mV at pH7). […] After the complex micelle was stable, the system was brought back to pH7. There are several reasons for this: to reduce the aggregation of the micelle, to protect the oligonucleotide and to keep the neutral environment for cells in the afterward cytotoxicity assays.

The nature of data set [4]: Nile Red encapsulation efficiency by Fluorescence Spectroscopy. The data set is classed as physicochemical. Particulars: preliminary polymer-protein aggregates loaded with Nile Red. The text has this: After the formation of polymer-protein Curcumin carrying micelles of a desirable size, there was a clear need to determine the amount of Curcumin actually encapsulated. Preliminary aggregates were loaded with Nile Red dye to act as a makeshift drug and analysed by Fluorescence Spectroscopy. After comparison to a Calibration curve established from analysis of Nile Red concentrations dissolved in DMSO solvent, the intensity was backcalculated to yield a 30.4% encapsulation efficiency.

Oligonucleotides are written 5' to 3', each unit as a sugar letter and its base; * is a phosphorothioate linkage, no mark a phosphodiester; rarer units and linkages stand in square brackets, end groups in braces. Plain capitals give the bases only. d = 2'-deoxy (DNA)

BSA-FITC: in data set [1] (0.1M PBS pH 7, 25° C.), the “Dh number (d/nm)” value is 7.44 nm. In data set [1], this molecule gave a PDi of 0.58. Regarding `COc1cc(/C=C/C(=O)CC(=O)/C=C/c2ccc(O)c(OC)c2)ccc1O` [Curcumin], in the data set on cancer cells, the IC50 is 10 µM. Also, the toxicity result in data set [2] was “only negligible toxicity”. “ISIS 5132: 20-base antisense phosphorothioate oligodeoxyribonucleotide: 5′TCCCGCCTGTGACATGCATT3′ (DNA dT*dC*dC*dC*dG*dC*dC*dT*dG*dT*dG*dA*dC*dA*dT*dG*dC*dA*dT*dT)”: in data set [3], the Dh was 0-107 nm and the Zeta potential is −29.87 mV. Take `CCN(CC)c1ccc2nc3c4ccccc4c(=O)cc-3oc2c1` [Nile Red]: in data set [4], the “Nile Red encapsulation efficiency” value is on record as 30.4%.

Consider P(HPMA13-co-[(AC-DAP)9-Pt8]), for which the PDi in data set [1] turned out to be 0.14.
